Legend:
β2c/2i = assay: Cell-Based Proteasome Activity/Selectivity Assay (Ramos cells), substrate (KQL)2Rh110; conditions: highest concentration tested 20 μM
Excerpt: (§1) Cell-Based Proteasome Activity/Selectivity Assay
(§2) The Cell-Based Proteasome subunit activity/selectivity assay was a panel of 5 fluorogenic assays that independently measured the activity of β5c or β5i (chymotrypsin-like activity), β2c/2i (trypsin-like), and β1c or β1i (caspase-like) protease activity associated with the proteasome complex in cultured cells. Specifically, the following substrates were used for respective subunit activities: β1i: (PAL)2Rh110, β1c: (LLE)2 Rh110, β2c/2i: (KQL)2Rh110, β5c: (WLA)2Rh110, β5i: (ANW)2Rh110. The following procedure was followed:
(§3) Cell preparation: Plated 25 μl of Ramos cells (2×10^6/ml in DPBS) into half area plate (PerkinElmer Cat 6005569) to final 5×10^4 cells/well. Added 0.5 μl of 100×4-fold serial diluted test compounds or DMSO to each well. Highest concentration of compound tested was 20 μM, thus compound serial dilution started from […]. Incubated for 30 minutes at 37° C. Then equilibrated at room temperature for 15 minutes. Added 25 μl of 2× reaction mix consisting of 0.025% digitonin, 20 μM of each substrates and 0.5M sucrose in DPBS. Shaked for one minute @ 700 rpm. Incubated for 120 min at room temperature. Then read the plates with an Envision multilabel plate reader (PerkinElmer) with 500 nm excitation/519 nm emission.

[1] = tested on: IP10 level in PBMCs stimulated with CpG Type A; assay: PBMC IP-10 Assay; type: cell-based; conditions: CpG Type A 2.5 μM
Protocol: PBMCs were isolated from whole blood as follows: Blood was collected in a sterile environment in heparinized tubes. Blood was diluted with an equal volume PBS/2% FCS and 30 ml of this mixture was added to ACCUSPIN tubes containing 15 ml Histopaque-1077 already centrifuged at 800 g for 30 seconds and warmed up at room temperature. The tubes were then centrifuged at 800 g for 20 minutes at room temperature with no brake. The mononuclear band, just above the polyethylene frit, was removed by Pasteur pipet. These mononuclear cells were washed three times with sterile PBS, counted, and resuspended in RPMI 1640 supplemented with 10% heat inactivated fetal calf serum, 10 mM HEPES, 1 mM sodium pyruvate, penicillin (50 U/ml), streptomycin (50 μg/ml) and glutamine (2 mM) to approximately 1.5×10^6/ml. Approximately 2×10^5 cells/well were plated in 96 well tissue culture plates (BD Falcon 353072), and preincubated 60 mi/37° C. with a titration of compounds, in a final concentration of 1% DMSO. Cells were then stimulated with CpG Type A (Invivogen, Cat #tlrl-2216; ODN 2216) at a final concentration of 2.5 μM. Cells were incubated overnight, and supernatants were removed. PBMC viability of cells remaining in the well was measured with ATPlite luminescence assay (Perkin-Elmer) per the manufacturer's instructions. Luminescence was measured on the Perkin-Elmer Envision, using the luminescence filter. IP10 level was measured with CXCL10/IP10 AlphaLISA kit (Perkin-Elmer) per the manufacturer's instructions, except halving all volumes. Fluorescence was measured on the Envision Multilabel plate reader, using the AlphaScreen standard settings.

β1c = molecular target: T1, β1c (Homo sapiens, UniProt P28072+Q99436); assay: Cell-Based Proteasome Activity/Selectivity Assay (Ramos cells), substrate (LLE)2 Rh110; conditions: highest concentration tested 20 μM
T1 construct: protease activity associated with the proteasome complex in cultured cells; endogenous in cells; host or cells: Ramos cells
Excerpt: as §1, §2, §3

β5i = molecular target: T2, β5i (Homo sapiens, UniProt P20618+P28062); assay: Cell-Based Proteasome Activity/Selectivity Assay (Ramos cells), substrate (ANW)2Rh110; conditions: highest concentration tested 20 μM, read-out: Ic50 ramos:ac-(anw)2-r110
T2 construct: protease activity associated with the proteasome complex in cultured cells; endogenous in cells; host or cells: Ramos cells
Excerpt: as §1, §2, §3

β1i = molecular target: T3, β1i (Homo sapiens, UniProt P28065+P40306); assay: Cell-Based Proteasome Activity/Selectivity Assay (Ramos cells), substrate (PAL)2Rh110; conditions: highest concentration tested 20 μM
T3 construct: protease activity associated with the proteasome complex in cultured cells; endogenous in cells; host or cells: Ramos cells
Excerpt: as §1, §2, §3

β5c = molecular target: T4, β5c (Homo sapiens, UniProt P20618+P28074); assay: Cell-Based Proteasome Activity/Selectivity Assay (Ramos cells), substrate (WLA)2Rh110; conditions: highest concentration tested 20 μM
T4 construct: protease activity associated with the proteasome complex in cultured cells; endogenous in cells; host or cells: Ramos cells
Excerpt: as §1, §2, §3

For CCCCC(NC(=O)[C@H](COC)NC(=O)[C@H](C)NC(=O)c1cc(C)on1)C(=O)C(=O)NCc1ccccc1 (mixture of isomers) [Example 6, 5-Methyl-isoxazole-3-carboxylic acid {(S)-1-[(S)-1-((S)-1-benzylaminooxalyl-pentylcarbamoyl)-2-methoxy-ethylcarbamoyl]-ethyl}-amide], the IC50 (β2c/2i) was > 20000 nM, the EC50 [1] was 13600 nM and the IC50 (β1c) was > 20000 nM. For the same compound, the IC50 (β5i) was 1040 nM, the IC50 (β1i) was 949 nM and the IC50 (β5c) was 5520 nM.

For CCCC[C@H](NC(=O)[C@H](CC(C)C)NC(=O)[C@@H](NC(=O)[C@H](Cc1ccccc1C)NC(C)=O)C(C)(C)C)C(=O)C(=O)NCc1ccccc1 [Example 1, (S)-3-{(S)-2-[(S)-2-((S)-2-Acetylamino-3-o-tolyl-propionylamino)-3,3-dimethyl-butyrylamino]-4-methyl-pentanoylamino}-2-oxo-heptanoic acid benzylamide], the IC50 (β2c/2i) was 10600 nM, the EC50 [1] was 2050 nM and the IC50 (β1c) was 3550 nM. The IC50 (β5i) was 146 nM, the IC50 (β1i) was 910 nM and the IC50 (β5c) was 450 nM.

With CCCC[C@H](NC(=O)[C@H](CC(C)C)NC(=O)[C@@H](NC(=O)CN1CCOCC1)C(C)(C)C)C(=O)C(=O)NCc1ccccc1 [Example 2, (S)-3-{(S)-2-[(S)-3,3-Dimethyl-2-(2-morpholin-4-yl-acetylamino)-butyrylamino]-4-methyl-pentanoylamino}-2-oxo-heptanoic acid benzylamide] the IC50 (β2c/2i) was > 20000 nM, the EC50 [1] was 12100 nM and the IC50 (β1c) was 8700 nM. For the same compound, the IC50 (β5i) was 2080 nM, the IC50 (β1i) was 661 nM and the IC50 (β5c) was 2430 nM.

CCCC[C@H](NC(=O)[C@H](Cc1ccc(OC)cc1)NC(=O)[C@H](C)NC(=O)CN1CCOCC1)C(=O)C(=O)NCc1ccccc1 [Example 3, (S)-3-{(S)-3-(4-Methoxy-phenyl)-2-[(S)-2-(2-morpholin-4-yl-acetylamino)-propionylamino]-propionylamino}-2-oxo-heptanoic acid benzylamide] was tested, and the IC50 (β2c/2i) was > 20000 nM, the EC50 [1] was 7960 nM and the IC50 (β1c) was > 20000 nM. The IC50 (β5i) was 394 nM, the IC50 (β1i) was 560 nM and the IC50 (β5c) was 3200 nM.

In the case of CCCC[C@H](NC(=O)[C@H](Cc1c[nH]c2ccccc12)NC(=O)[C@H](C)NC(=O)c1cc(C)on1)C(=O)C(=O)NCc1ccccc1 [Example 4, 5-Methyl-isoxazole-3-carboxylic acid {(S)-1-[(S)-1-((S)-1-benzylaminooxalyl-pentylcarbamoyl)-2-(1H-indol-3-yl)-ethylcarbamoyl]-ethyl}-amide], the IC50 (β2c/2i) is reported as > 20000 nM, the EC50 [1] is reported as 3910 nM and the IC50 (β1c) is reported as 5700 nM. For the same compound, the IC50 (β5i) was 83 nM, the IC50 (β1i) was 91 nM and the IC50 (β5c) was 763 nM.

In the case of CCCC[C@H](NC(=O)[C@H](Cc1c[nH]c2ccccc12)NC(=O)[C@H](C)NC(=O)C1=C(C)c2ccccc2C1)C(=O)C(=O)NCc1ccccc1 [Example 5, 3-Methyl-1H-indene-2-carboxylic acid {(S)-1-[(S)-1-((S)-1-benzylaminooxalyl-pentylcarbamoyl)-2-(1H-indol-3-yl)-ethylcarbamoyl]-ethyl}-amide], the IC50 (β2c/2i) is reported as > 20000 nM, the EC50 [1] is reported as 1220 nM and the IC50 (β1c) is reported as 3350 nM. It also gave an IC50 (β5i) of 18 nM, an IC50 (β1i) of 142 nM and an IC50 (β5c) of 560 nM.

For CCCC[C@H](NC(=O)[C@H](Cc1c[nH]c2ccccc12)NC(=O)[C@H](C)NC(=O)C1=C(C)c2ccccc2C1)C(=O)C(=O)N[C@@H](C)c1ccccc1 [Example 7], the IC50 (β2c/2i) was > 20000 nM, the EC50 [1] was 4010 nM and the IC50 (β1c) was 13200 nM. It also gave an IC50 (β5i) of 102 nM, an IC50 (β1i) of 712 nM and an IC50 (β5c) of 3050 nM.

In the case of CCCC[C@H](NC(=O)[C@H](Cc1c[nH]c2ccccc12)NC(=O)[C@H](C)NC(=O)C1=C(C)c2ccccc2C1)C(=O)C(=O)N[C@H](C)c1ccccc1 [Example 8], the IC50 (β2c/2i) is reported as > 20000 nM, the EC50 [1] is reported as 1780 nM and the IC50 (β1c) is reported as 11100 nM. For the same compound, the IC50 (β5i) was 33 nM, the IC50 (β1i) was 504 nM and the IC50 (β5c) was 771 nM.

For CCCC[C@H](NC(=O)[C@H](Cc1c[nH]c2ccccc12)NC(=O)[C@H](C)NC(=O)OCc1ccccc1)C(=O)C(=O)NCc1ccccc1 [Example 9, {(S)-1-[(S)-1-((S)-1-Benzylaminooxalyl-pentylcarbamoyl)-2-(1H-indol-3-yl)-ethylcarbamoyl]-ethyl}-carbamic acid benzyl ester], the IC50 (β2c/2i) was > 20000 nM, the EC50 [1] was 5290 nM and the IC50 (β1c) was > 20000 nM. For the same compound, the IC50 (β5i) was 26 nM, the IC50 (β1i) was 34 nM and the IC50 (β5c) was 815 nM.

CCCC[C@H](NC(=O)[C@H](Cc1c[nH]c2ccccc12)NC(=O)[C@H](C)NC(=O)CN1CCOCC1)C(=O)C(=O)NCc1ccccc1 [Example 10, (S)-3-{(S)-3-(1H-Indol-3-yl)-2-[(S)-2-(2-morpholin-4-yl-acetylamino)-propionylamino]-propionylamino}-2-oxo-heptanoic acid benzylamide] was tested, and the IC50 (β2c/2i) was > 20000 nM, the IC50 (β1c) was > 20000 nM and the IC50 (β5i) was 709 nM. For the same compound, the IC50 (β1i) was 275 nM and the IC50 (β5c) was 1900 nM.

Compound CCCC[C@H](NC(=O)[C@H](Cc1c[nH]c2ccccc12)NC(=O)[C@H](C)NC(=O)C1Cc2ccccc2C1)C(=O)C(=O)NCc1ccccc1 [Example 11, Indan-2-carboxylic acid {(S)-1-[(S)-1-((S)-1-benzylaminooxalyl-pentylcarbamoyl)-2-(1H-indol-3-yl)-ethylcarbamoyl]-ethyl}-amide] has an IC50 (β2c/2i) of 8040 nM, an EC50 [1] of 1220 nM and an IC50 (β1c) of 2980 nM. For the same compound, the IC50 (β5i) was 14 nM and the IC50 (β5c) was 473 nM.

For CCCC[C@H](NC(=O)[C@H](Cc1c[nH]c2ccccc12)NC(=O)[C@H](C)NC(=O)c1cccc(Cl)c1Cl)C(=O)C(=O)NCc1ccccc1 [Example 12, N-{(S)-1-[(S)-1-((S)-1-Benzylaminooxalyl-pentylcarbamoyl)-2-(1H-indol-3-yl)-ethylcarbamoyl]-ethyl}-2,3-dichloro-benzamide], the IC50 (β2c/2i) was > 20000 nM, the EC50 [1] was 2610 nM and the IC50 (β1c) was 5430 nM. For the same compound, the IC50 (β5i) was 36 nM and the IC50 (β5c) was 381 nM.

In the case of CCCC[C@H](NC(=O)[C@H](Cc1c[nH]c2ccccc12)NC(=O)[C@H](C)NC(=O)c1ccnn1C)C(=O)C(=O)NCc1ccccc1 [Example 13, 2-Methyl-2H-pyrazole-3-carboxylic acid {(S)-1-[(S)-1-((S)-1-benzylaminooxalyl-pentylcarbamoyl)-2-(1H-indol-3-yl)-ethylcarbamoyl]-ethyl}-amide], the IC50 (β2c/2i) is reported as > 20000 nM, the EC50 [1] is reported as 3970 nM and the IC50 (β1c) is reported as 9560 nM. It also gave an IC50 (β5i) of 403 nM and an IC50 (β5c) of 2960 nM.

In the case of CCCC[C@H](NC(=O)[C@H](Cc1ccc(OC)cc1)NC(=O)[C@H](C)NC(=O)CN1CCOCC1)C(=O)C(=O)NC [Example 14, (S)-3-{(S)-3-(4-Methoxy-phenyl)-2-[(S)-2-(2-morpholin-4-yl-acetylamino)-propionylamino]-propionylamino}-2-oxo-heptanoic acid methylamide], the IC50 (β2c/2i) is reported as > 20000 nM, the EC50 [1] is reported as 5180 nM and the IC50 (β1c) is reported as > 20000 nM. The IC50 (β5i) was 699 nM, the IC50 (β1i) was 426 nM and the IC50 (β5c) was 16500 nM.

For CCCC[C@H](NC(=O)[C@H](CCS(C)(=O)=O)NC(=O)[C@H](C)NC(=O)C1=C(C)c2ccccc2C1)C(=O)C(=O)NCc1ccccc1 [Example 15, 3-Methyl-1H-indene-2-carboxylic acid {(S)-1-[(S)-1-((S)-1-benzylaminooxalyl-pentylcarbamoyl)-3-methanesulfonyl-propylcarbamoyl]-ethyl}-amide], the IC50 (β2c/2i) was > 20000 nM, the EC50 [1] was 1910 nM and the IC50 (β1c) was 8430 nM. It also gave an IC50 (β5i) of 101 nM, an IC50 (β1i) of 210 nM and an IC50 (β5c) of 3540 nM.
